Data from US20250186437A1, “CARBOLINE COMPOUNDS AND USE THEREOF” (PTC Therapeutics, Inc., priority 2021, published 2025).
pIC50: −log10 of the molar value.

test system: MOLM-13 cells; experiment: MOLM-13 Cell Proliferation Assay (indicator of DHODH inhibition); type: cell-based; conditions: 72 Hours of culture, CellTiter-Glo, no uridine
Method in brief: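 Low-passage MOLM-13 cells (10^4/well) in RPMI 1640 + 10% FBS exposed to compound (0.5% DMSO final) for 72 h at 37 °C, 5% CO2. Viability read by CellTiter-Glo luminescence; growth reflects de novo pyrimidine synthesis dependent on DHODH.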

Compound | pIC50
COC(=O)c1ncc([C@H]2c3[nH]c4ccc(Cl)cc4c3CCN2c2nc(C(F)(F)F)nc(C(F)(F)F)n2)cn1 [Compound 532, methyl 5-{(1S)-2-[4,6-bis(trifluoromethyl)-1,3,5-triazin-2-yl]-6-chloro-2,3,4,9-tetrahydro-1H-pyrido[3,4-b]indol-1-yl} pyrimidine-2-carboxylate] | 8.09

same assay, conditions: Homo sapiens, 72 Hours of culture, CellTiter-Glo, no uridine

Compound | pIC50
Cc1ccc([C@H]2c3[nH]c4ccc(-n5nccn5)cc4c3CCN2c2nc(C(F)(F)F)nc(C(F)(F)F)n2)c(F)c1F [Compound 524, (1S)-2-[4,6-bis(trifluoromethyl)-1,3,5-triazin-2-yl]-1-(2,3-difluoro-4-methylphenyl)-6-(2H-1,2,3-triazol-2-yl)-2,3,4,9-tetrahydro-1H-pyrido[3,4-b]indole] | 9.52
Cc1ccc([C@H]2c3[nH]c4ccc(Cl)cc4c3CCN2c2nc(C)c(F)c(C)n2)cc1 [Compound 395, (1S)-6-chloro-2-(5-fluoro-4,6-dimethylpyrimidin-2-yl)-1-(4-methylphenyl)-2,3,4,9-tetrahydro-1H-pyrido[3,4-b]indole] | 8.36
CC(C)c1ccc(C2c3[nH]c4cc(F)c(Cl)cc4c3CCN2c2ncc(F)cn2)cc1 (stereo not drawn) [Compound 50, 6-chloro-7-fluoro-2-(5-fluoropyrimidin-2-yl)-1-[4-(propan-2-yl)phenyl]-2,3,4,9-tetrahydro-1H-pyrido[3,4-b]indole] | 7.61
N#Cc1ncnc(N2CCc3c([nH]c4ccc(Cl)cc34)[C@@H]2c2cnc(N3CCOCC3)nc2)n1 [Compound 414, 4-{(1S)-6-chloro-1-[2-(morpholin-4-yl)pyrimidin-5-yl]-1,3,4,9-tetrahydro-2H-pyrido[3,4-b]indol-2-yl}-1,3,5-triazine-2-carbonitrile] | 7.42
Cc1ccnc(N2CCc3c([nH]c4ccc(Cl)cc34)C2c2ccc(C)c(F)c2F)n1 (stereo not drawn) [Compound 203, 6-chloro-1-(2,3-difluoro-4-methylphenyl)-2-(4-methylpyrimidin-2-yl)-2,3,4,9-tetrahydro-1H-pyrido[3,4-b]indole] | 8.80
Fc1cnc(N2CCc3c([nH]c4ccc(Cl)c(F)c34)C2c2cnc(N3CCOCC3)nc2)nc1 (stereo not drawn) [Compound 211, 6-chloro-5-fluoro-2-(5-fluoropyrimidin-2-yl)-1-[2-(morpholin-4-yl)pyrimidin-5-yl]-2,3,4,9-tetrahydro-1H-pyrido[3,4-b]indole] | 8.31
FC(F)(F)c1ccnc(N2CCc3c([nH]c4ccc(Cl)cc34)C2c2cnc(N3CCOCC3)nc2)n1 (stereo not drawn) [Compound 251, 6-chloro-1-[2-(morpholin-4-yl)pyrimidin-5-yl]-2-[4-(trifluoromethyl)pyrimidin-2-yl]-2,3,4,9-tetrahydro-1H-pyrido[3,4-b]indole] | 8.70
Cc1cc(O)c2[nH]c3c(c2c1)CCN(c1nccc(C(F)(F)F)n1)C3c1ccc(C)c(F)c1F (stereo not drawn) [Compound 276, 1-(2,3-difluoro-4-methylphenyl)-6-methyl-2-[4-(trifluoromethyl)pyrimidin-2-yl]-2,3,4,9-tetrahydro-1H-pyrido[3,4-b]indol-8-ol] | 9.22
FC(F)(F)c1ccnc(N2CCc3c([nH]c4ccc(-n5cccn5)cc34)C2c2cnc(N3CCOCC3)nc2)n1 (stereo not drawn) [Compound 301, 1-[2-(morpholin-4-yl)pyrimidin-5-yl]-6-(1H-pyrazol-1-yl)-2-[4-(trifluoromethyl)pyrimidin-2-yl]-2,3,4,9-tetrahydro-1H-pyrido[3,4-b]indole] | 7.62
Cc1ccc(C2c3[nH]c4ccc(Cl)c(F)c4c3CCN2c2nc(C)c(F)c(C)n2)cc1 (stereo not drawn) [Compound 116, 6-chloro-5-fluoro-2-(5-fluoro-4,6-dimethylpyrimidin-2-yl)-1-(4-methylphenyl)-2,3,4,9-tetrahydro-1H-pyrido[3,4-b]indole] | 8.17
N#Cc1ccnc(N2CCc3c([nH]c4cc(F)c(Cl)cc34)C2c2cccc(F)c2F)n1 (stereo not drawn) [Compound 68, 2-[6-chloro-1-(2,3-difluorophenyl)-7-fluoro-1,3,4,9-tetrahydro-2H-pyrido[3,4-b]indol-2-yl]pyrimidine-4-carbonitrile] | 8.06
CS(=O)(=O)c1ccc(C2c3[nH]c4cc(F)c(Cl)cc4c3CCN2c2ncc(F)cn2)cc1 (stereo not drawn) [Compound 107, 6-chloro-7-fluoro-2-(5-fluoropyrimidin-2-yl)-1-[4-(methanesulfonyl)phenyl]-2,3,4,9-tetrahydro-1H-pyrido[3,4-b]indole] | 7.35
C[C@@H]1CN(c2ncc([C@H]3c4[nH]c5ccc(Cl)cc5c4CCN3c3nc(C(F)(F)F)cc(C(F)(F)F)n3)cn2)C[C@H](C)N1 [Compound 503, (1S)-2-[4,6-bis(trifluoromethyl)pyrimidin-2-yl]-6-chloro-1-{2-[(3R,5S)-3,5-dimethylpiperazin-1-yl]pyrimidin-5-yl}-2,3,4,9-tetrahydro-1H-pyrido[3,4-b]indole] | 8.14
Oc1cc2[nH]c3c(c2cc1Cl)CCN(c1nccc(C(F)(F)F)n1)C3c1ccc(Cl)cc1 (stereo not drawn) [Compound 250, 6-chloro-1-(4-chlorophenyl)-2-[4-(trifluoromethyl)pyrimidin-2-yl]-2,3,4,9-tetrahydro-1H-pyrido[3,4-b]indol-7-ol] | 7.06
FC(F)(F)c1cc(C(F)(F)F)nc(N2CCc3c([nH]c4ccc(-n5nccn5)cc34)C2c2ccc(N3CCOCC3)nc2)n1 (stereo not drawn) [Compound 454, 2-[4,6-bis(trifluoromethyl)pyrimidin-2-yl]-1-[6-(morpholin-4-yl)pyridin-3-yl]-6-(2H-1,2,3-triazol-2-yl)-2,3,4,9-tetrahydro-1H-pyrido[3,4-b]indole] | 9.15
Fc1c(Cl)ccc2[nH]c3c(c12)CCN(c1ncc(Cl)cn1)C3c1ccc(C(F)(F)F)cc1 (stereo not drawn) [Compound 62, 6-chloro-2-(5-chloropyrimidin-2-yl)-5-fluoro-1-[4-(trifluoromethyl)phenyl]-2,3,4,9-tetrahydro-1H-pyrido[3,4-b]indole] | 7.61
Cc1ccc([C@H]2c3[nH]c4ccc(Cl)cc4c3CCN2c2nc(C)nc(C(F)(F)F)n2)cc1 [Compound 467, (1S)-6-chloro-1-(4-methylphenyl)-2-[4-methyl-6-(trifluoromethyl)-1,3,5-triazin-2-yl]-2,3,4,9-tetrahydro-1H-pyrido[3,4-b]indole] | 9.15
Cc1nc(C)nc(N2CCc3c([nH]c4ccc(Cl)c([N+](=O)[O-])c34)C2c2cnc(N3CCOCC3)nc2)n1 (stereo not drawn) [Compound 325, 4-[5-[6-chloro-2-(4,6-dimethyl-1,3,5-triazin-2-yl)-5-nitro-1,3,4,9-tetrahydropyrido[3,4-b]indol-1-yl]pyrimidin-2-yl]morpholine] | 6.78
CN(C)c1ncc(C2c3[nH]c4ccc(Cl)c(F)c4c3CCN2c2nccc(C(F)(F)F)n2)cc1F (stereo not drawn) [Compound 160, 5-{6-chloro-5-fluoro-2-[4-(trifluoromethyl)pyrimidin-2-yl]-2,3,4,9-tetrahydro-1H-pyrido[3,4-b]indol-1-yl}-3-fluoro-N,N-dimethylpyridin-2-amine] | 8.46
CN(C)c1ccc(C2c3[nH]c4ccc(Cl)c(F)c4c3CCN2c2ncc(F)cn2)cn1 (stereo not drawn) [Compound 194, 5-[6-chloro-5-fluoro-2-(5-fluoropyrimidin-2-yl)-2,3,4,9-tetrahydro-1H-pyrido[3,4-b]indol-1-yl]-N,N-dimethylpyridin-2-amine] | 7.94
CN1CCN(c2ncc([C@H]3c4[nH]c5ccc(Cl)cc5c4CCN3c3nccc(C(F)(F)F)n3)cn2)CC1 [Compound 484, (1S)-6-chloro-1-[2-(4-methylpiperazin-1-yl)pyrimidin-5-yl]-2-[4-(trifluoromethyl)pyrimidin-2-yl]-2,3,4,9-tetrahydro-1H-pyrido[3,4-b]indole] | 8.59
Cc1ccc(C2c3[nH]c4cc(F)c(Cl)cc4c3CCN2c2nc(Cl)cc(Cl)n2)cc1 (stereo not drawn) [Compound 16, 6-chloro-2-(4,6-dichloropyrimidin-2-yl)-7-fluoro-1-(4-methylphenyl)-2,3,4,9-tetrahydro-1H-pyrido[3,4-b]indole] | 8.74
Nc1ncc(C2c3[nH]c4ccc(Cl)c(F)c4c3CCN2c2ncc(F)cn2)cn1 (stereo not drawn) [Compound 212, 5-[6-chloro-5-fluoro-2-(5-fluoropyrimidin-2-yl)-2,3,4,9-tetrahydro-1H-pyrido[3,4-b]indol-1-yl]pyrimidin-2-amine] | 7.15
Fc1cccc(C2c3[nH]c4ccc(Cl)cc4c3CCN2c2nccc(C(F)(F)F)n2)c1F (stereo not drawn) [Compound 119, 6-chloro-1-(2,3-difluorophenyl)-2-[4-(trifluoromethyl)pyrimidin-2-yl]-2,3,4,9-tetrahydro-1H-pyrido[3,4-b]indole] | 8.66
Cc1ccc([C@H]2c3[nH]c4ccc(-n5nccn5)cc4c3CCN2c2nc(C(F)(F)F)cc(C(F)(F)F)n2)c(F)c1F [Compound 519, (1S)-2-[4,6-bis(trifluoromethyl)pyrimidin-2-yl]-1-(2,3-difluoro-4-methylphenyl)-6-(2H-1,2,3-triazol-2-yl)-2,3,4,9-tetrahydro-1H-pyrido[3,4-b]indole] | 9.52
Oc1ccccc1C1c2[nH]c3ccc(Cl)cc3c2CCN1c1nccc(C(F)(F)F)n1 (stereo not drawn) [Compound 353, 2-{6-chloro-2-[4-(trifluoromethyl)pyrimidin-2-yl]-2,3,4,9-tetrahydro-1H-pyrido[3,4-b]indol-1-yl}phenol] | 8.24
Cc1nc(N2CCOCC2)nc(N2CCc3c([nH]c4ccc(Cl)cc34)C2c2cnc(N3CCOCC3)nc2)n1 (stereo not drawn) [Compound 296, 6-chloro-2-[4-methyl-6-(morpholin-4-yl)-1,3,5-triazin-2-yl]-1-[2-(morpholin-4-yl)pyrimidin-5-yl]-2,3,4,9-tetrahydro-1H-pyrido[3,4-b]indole] | 7.79
Fc1cnc(N2CCc3c([nH]c4cc(F)c(Cl)cc34)C2c2ccc(F)cc2F)nc1 (stereo not drawn) [Compound 12, 6-chloro-1-(2,4-difluorophenyl)-7-fluoro-2-(5-fluoropyrimidin-2-yl)-2,3,4,9-tetrahydro-1H-pyrido[3,4-b]indole] | 7.45
Fc1ccc(C2c3[nH]c4ccc(Cl)c(F)c4c3CCN2c2nccc(C(F)(F)F)n2)c(F)n1 (stereo not drawn) [Compound 186, 6-chloro-1-(2,6-difluoropyridin-3-yl)-5-fluoro-2-[4-(trifluoromethyl)pyrimidin-2-yl]-2,3,4,9-tetrahydro-1H-pyrido[3,4-b]indole] | 8.52
